Measurements as given in patent US4474800A, “Epoxysuccinyl amino acid derivatives” (Taisho Pharmaceutical Co., Ltd., priority 1980, dated 1984).
One block for each compound: values may come before it.

Legend:
[1] = biological target: T1, CANP prepared from a muscle of hereditary muscular dystrophy chicken (Gallus gallus, UniProt P00789); assay: CANP inhibitory activity (method of Ishiura et al.); assay type: biochemical; settings: 50% inhibition in molar ratio to the enzyme
T1 construct: from tissue; host or cells: muscle of hereditary muscular dystrophy chicken
T1 sequence (P00789 1-705): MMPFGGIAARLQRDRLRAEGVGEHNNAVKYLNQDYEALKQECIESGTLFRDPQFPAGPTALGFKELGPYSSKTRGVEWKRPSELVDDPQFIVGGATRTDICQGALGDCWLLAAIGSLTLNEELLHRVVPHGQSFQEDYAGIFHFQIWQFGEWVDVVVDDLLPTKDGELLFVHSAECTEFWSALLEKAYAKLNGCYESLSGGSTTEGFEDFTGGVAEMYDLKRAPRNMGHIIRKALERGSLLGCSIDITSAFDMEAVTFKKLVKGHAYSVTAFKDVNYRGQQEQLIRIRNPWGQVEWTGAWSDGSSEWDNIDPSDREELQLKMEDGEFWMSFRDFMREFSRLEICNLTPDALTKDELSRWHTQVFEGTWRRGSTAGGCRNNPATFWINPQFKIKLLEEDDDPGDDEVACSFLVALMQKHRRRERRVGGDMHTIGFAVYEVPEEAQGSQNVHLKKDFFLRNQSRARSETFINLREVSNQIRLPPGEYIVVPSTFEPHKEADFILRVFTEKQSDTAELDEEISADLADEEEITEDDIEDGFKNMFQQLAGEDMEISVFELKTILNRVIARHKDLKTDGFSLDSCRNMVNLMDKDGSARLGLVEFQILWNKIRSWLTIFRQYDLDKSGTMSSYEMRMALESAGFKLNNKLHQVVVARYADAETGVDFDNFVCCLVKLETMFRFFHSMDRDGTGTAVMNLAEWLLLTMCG
Description: Their muscular dystrophy inhibitory activity was assayed by the method of Ishiura et al., [J. of Biochem., 84, 225 (1978)] using CANP prepared from a muscle of hereditary muscular dystrophy chicken, and the resulting value for 50% inhibition in the molar ratios for the enzyme expressed as ID50 (mole/mole) is shown in Table 1 below.

[2] = Concentration in rat plasma after subcutaneous administration; assay type: in vivo; settings: sc, rats, 50 mg/kg, an hour after administration
Description: The compounds of the present invention are better absorbed by the subcutaneous route in mammals such as rats or rabbits, as compared with the epoxysuccinic acid derivatives of the German Patent Laid Open Application described above and Chemical Abstracts, 87, 68129a (1977). To determine absorption, these compounds were administered subcutaneously to rats at a dose of 50 mg/kg, and the concentration of the test compound in rat plasma at an hour after the administration is shown in following Table 1.

papain = biological target: T2, papain (Carica papaya, UniProt P00784); assay: Papain inhibitory activity (method of K. Hanada et al.); assay type: biochemical; settings: papain 80 μg/ml, Sigma, twice crystallized
T2 construct: purchased Sigma Chem. Co
T2 sequence (P00784 134-345): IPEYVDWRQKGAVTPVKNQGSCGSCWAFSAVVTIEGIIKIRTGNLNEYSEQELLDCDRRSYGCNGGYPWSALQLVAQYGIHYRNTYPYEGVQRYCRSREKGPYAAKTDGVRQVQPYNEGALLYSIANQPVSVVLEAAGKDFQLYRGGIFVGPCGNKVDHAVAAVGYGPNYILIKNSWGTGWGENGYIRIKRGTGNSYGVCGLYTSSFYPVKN
Description: Papain inhibitory activity of the compounds of the present invention was assayed by the method of K. Hanada et al. [Agric. Biol. Chem., 42, (3) 523 (1978)] using papain (80 μg/ml, Sigma Chem. Co.) after twice crystallization.

CANP Inhibitory Activity ID50 (mole/mole) [1]: 410 mole/mole
Structure (SMILES): O=C(O)[C@H]1O[C@@H]1C(=O)OCc1ccccc1 (relative stereo) [B, Benzyl hydrogen epoxysuccinate, reference compound]

Structure (SMILES): CC(C)C[C@H](NC(=O)C1OC1C(=O)OCc1ccccc1)C(=O)NCCCCCNC(=O)OCc1ccccc1 (mixture of isomers) [Compound 2, N-[N-(DL-3-trans-benzyloxycarbonyloxirane-2-carbonyl)-L-leucyl]-N'-benzyloxycarbonyl-1,5-diaminopentane]
concentration at 1 h [2]: 1500 ng/mL
CANP Inhibitory Activity ID50 (mole/mole) [1]: 121 mole/mole
Papain inhibitory activity ID50 (amount of inhibitor for 50% inhibition) (papain): 0.481 µg

CANP Inhibitory Activity ID50 (mole/mole) [1]: 580 mole/mole
Structure (SMILES): CCOC(=O)C1OC1C(=O)N[C@@H](CC(C)C)C(=O)OCc1ccccc1 (stereo partly drawn) [C, N--(3ethoxy-carbonyloxirane-2-carbonyl)-L-leucine benzyl ester, reference compound]

Structure (SMILES): CC[C@H](C)[C@H](NC(=O)C1OC1C(=O)OCc1ccccc1)C(=O)NCCCCNC(=O)OCc1ccccc1 (mixture of isomers) [Compound 5, N-[N-(DL-3-benzyloxycarbonyloxirane-2-carbonyl)-L-isoleucyl]-N'-benzyloxycarbonyl-1,4-diaminobutane]
concentration at 1 h [2]: 1400 ng/mL
CANP Inhibitory Activity ID50 (mole/mole) [1]: 92 mole/mole
Papain inhibitory activity ID50 (amount of inhibitor for 50% inhibition) (papain): 0.323 µg

CANP Inhibitory Activity ID50 (mole/mole) [1]: 4,600 mole/mole
Structure (SMILES): CC(C)C[C@H](NC(=O)C1OC1C(=O)O)C(=O)O (stereo partly drawn) [E, N--(3carboxyoxirane-2-carbonyl)-L-leucine, reference compound]

Structure (SMILES): CC(C)C[C@H](NC(=O)C1OC1C(=O)O)C(=O)NCCCCN (mixture of isomers) [Compound 12, N-[N-(DL-3-trans-carboxyoxirane-2-carbonyl)-L-leucyl]-1,4-diaminobutane]
concentration at 1 h [2]: 25000 ng/mL
CANP Inhibitory Activity ID50 (mole/mole) [1]: 55 mole/mole
Papain inhibitory activity ID50 (amount of inhibitor for 50% inhibition) (papain): 0.106 µg

Structure (SMILES): CC(C)C[C@H](NC(=O)C1OC1C(=O)OCc1ccccc1)C(=O)NCCCCNC(=O)c1ccccc1 (mixture of isomers) [Compound 9, N-[N-(DL-3-trans-benzyloxycarbonyloxirane-2-carbonyl)-L-leucyl]-N'-benzoyl-1,4-diaminobutane]
concentration at 1 h [2]: 1300 ng/mL
CANP Inhibitory Activity ID50 (mole/mole) [1]: 89 mole/mole
Papain inhibitory activity ID50 (amount of inhibitor for 50% inhibition) (papain): 0.181 µg

Structure (SMILES): CC(C)C[C@H](NC(=O)C1OC1C(=O)OCc1ccccc1)C(=O)NCCCCNC(=O)OCc1ccccc1 (mixture of isomers) [Compound 10, N-[N-(DL-3-trans-benzyloxycarbonyloxirane-2-carbonyl)-L-leucyl]-N'-benzyloxycarbonyl-1,4-diaminobutane]
concentration at 1 h [2]: 1600 ng/mL
CANP Inhibitory Activity ID50 (mole/mole) [1]: 78 mole/mole
Papain inhibitory activity ID50 (amount of inhibitor for 50% inhibition) (papain): 0.260 µg

Structure (SMILES): CC(C)C[C@H](NC(=O)C1OC1C(=O)OCc1ccccc1)C(=O)NCCNC(=O)OCc1ccccc1 (mixture of isomers) [Compound 3, N-[N-(DL-3-trans-benzyloxycarbonyloxirane-2-carbonyl)-L-leucyl]-N'-benzyloxycarbonyl-1,2-diaminoethane]
Papain inhibitory activity ID50 (amount of inhibitor for 50% inhibition) (papain): 0.203 µg

Structure (SMILES): CC(C)C[C@H](NC(=O)C1OC1C(=O)OC1CCCC1)C(=O)NCCCCNC(=O)OCc1ccccc1 (mixture of isomers) [Compound 7, N-[N-(DL-3-trans-cyclopentyloxycarbonyloxirane-2-carbonyl)-L-leucyl]-N'-benzyloxycarbonyl-1,4-diaminobutane]
Papain inhibitory activity ID50 (amount of inhibitor for 50% inhibition) (papain): 0.164 µg

Structure (SMILES): CC(C)C[C@H](NC(=O)C1OC1C(=O)O)C(=O)NCCCCNC(=O)OCc1ccccc1 (mixture of isomers) [Compound 11, N-[N-(DL-3-trans-carboxyoxirane-2-carbonyl)-L-leucyl]-N'-benzyloxycarbonyl-1,4-diaminobutane]
concentration at 1 h [2]: 13000 ng/mL
CANP Inhibitory Activity ID50 (mole/mole) [1]: 19 mole/mole
Papain inhibitory activity ID50 (amount of inhibitor for 50% inhibition) (papain): 0.118 µg

Structure (SMILES): CC(C)C[C@H](NC(=O)C1OC1C(=O)OCc1ccccc1)C(=O)NCCCCCCCNC(=O)OCc1ccccc1 (mixture of isomers) [Compound 1, N-[N-(DL-3-trans-benzyloxycarbonyloxirane-2-carbonyl)-L-leucyl]-N'-benzyloxycarbonyl-1,7-diaminoheptane]
Papain inhibitory activity ID50 (amount of inhibitor for 50% inhibition) (papain): 0.302 µg

Structure (SMILES): CC(C)C[C@H](NC(=O)C1OC1C(=O)OC1CCCCC1)C(=O)NCCCCNC(=O)OCc1ccccc1 (mixture of isomers) [Compound 6, N-[N-(DL-3-trans-cyclohexyloxycarbonyloxirane-2-carbonyl)-L-leucyl]-N'-benzyloxycarbonyl-1,4-diaminobutane]
concentration at 1 h [2]: 1500 ng/mL
CANP Inhibitory Activity ID50 (mole/mole) [1]: 75 mole/mole
Papain inhibitory activity ID50 (amount of inhibitor for 50% inhibition) (papain): 0.142 µg

CANP Inhibitory Activity ID50 (mole/mole) [1]: 5,400 mole/mole
Structure (SMILES): CCOC(=O)[C@H]1O[C@@H]1C(=O)O (relative stereo) [A, Ethyl hydrogen epoxysuccinate, reference compound]

Structure (SMILES): CC(=O)NCCCCNC(=O)[C@H](CC(C)C)NC(=O)C1OC1C(=O)OCc1ccccc1 (mixture of isomers) [Compound 8, N-[N-(DL-3-trans-benzyloxycarbonyloxirane-2-carbonyl)-L-leucyl]-N'-acetyl-1,4-diaminobutane]
concentration at 1 h [2]: 1800 ng/mL
CANP Inhibitory Activity ID50 (mole/mole) [1]: 100 mole/mole
Papain inhibitory activity ID50 (amount of inhibitor for 50% inhibition) (papain): 0.123 µg

Structure (SMILES): CC(C)[C@H](NC(=O)C1OC1C(=O)OCc1ccccc1)C(=O)NCCCCNC(=O)OCc1ccccc1 (mixture of isomers) [Compound 4, N-[N-(DL-3-trans-benzyloxycarbonyloxirane-2-carbonyl)-L-valyl]-N'-benzyloxycarbonyl-1,4-diaminobutane]
concentration at 1 h [2]: 1200 ng/mL
CANP Inhibitory Activity ID50 (mole/mole) [1]: 113 mole/mole
Papain inhibitory activity ID50 (amount of inhibitor for 50% inhibition) (papain): 0.436 µg
